Test results reported in patent US20040242489A1, “Method for improving stability of a bone-connecting implant” (priority 2001, published 2004).

What was measured:
[1] = system: knee prosthesis in patients; details: administered orally to patients undergoing total knee replacement; cited from earlier work
[2] = system: rats, titanium bone chamber; details: 15-240 μg/kg/day for six weeks; cited from earlier work
[3] = system: humans suffering from osteoporosis; details: cited from earlier work
[4] = system: rats, stainless steel screw; details: 60 μg/kg/day for four weeks; cited from earlier work
[5] = system: bone-connecting implant in a human; experiment: Displacement or migration of implant by radiosterometric analysis (RSA) in patients treated with PTH; type: in vivo
From the text: For example, in Hilding, M. et al., Acta Orthopaedica Scandinavica 71:553-557 (2000), several 0.8 mm tantalum markers were positioned in both the proximal tibia and the plastic insert during total knee replacement surgeries. The positions of the markers were followed by radiographs taken one day, six weeks, six months and one year following the operation as a means to monitor postoperative implant shifting. Other techniques for measuring or evaluating the stability of bone-connecting implants are known to those skilled in the art and may be applied to the present invention.
The displacement or migration of the implanted artificial hip is measured over a 6-month period using radiosterometric analysis (RSA) as described in Hilding et al., supra.
The displacement or migration of the implanted artificial hip is measured over a 9-month period using radiosterometric analysis (RSA) as described in Hilding et al., supra.
The displacement or migration of the implanted tibia is measured over a 4-month period using radiosterometric analysis (RSA) as described in Hilding et al., supra.
The displacement or migration of the implanted artificial knee is measured over a 12-month period using radiosterometric analysis (RSA) as described in Hilding et al., supra.

Row | Compound | prosthetic migration [1] | new bone formation [2] | fractures [3] | spinal bone mineral content [3] | fixation of a stainless steel screw [4] | likelihood of reoperation ([5]; Example 1: person, osteoporosis, artificial hip, regimen of Table 1) | likelihood of reoperation ([5]; Example 2: person, osteoarthritis, artificial hip, regimen of Table 2) | likelihood of reoperation ([5]; Example 3: person, tibia replacement, regimen of Table 3) | likelihood of reoperation ([5]; Example 4: person, knee replacement, regimen of Table 4) | likelihood of reoperation ([5]; Example 5: person, artificial hip, regimen of Table 5)
1 | O=P(O)(O)C(Cl)(Cl)P(=O)(O)O [Clodronate] | appeared to reduce prosthetic migration |  |  |  |  |  |  |  |  | 
2 | PTH(1-34): The N-terminal 34 amino acids of human PTH (parathyroid hormone); PTH utilized in Examples 1-5 (SVSEIQLMHNLGKHLNSMERVEWLRKKLQDVHNF; Parathyroid hormone; UniProt P01270 32-65, looked up, fragment) |  | enhances new bone formation | reduce fractures | increase spinal bone mineral content | enhances fixation of a stainless steel screw | reduce the likelihood of reoperation | reduce the likelihood of reoperation | reduce the likelihood of reoperation | reduce the likelihood of a reoperation | reduce the likelihood of reoperation
